Consider two compounds from patent publication US20100029775A1, “RENIN INHIBITORS FOR THE PREVENTION AND TREATMENT OF HYPERTENSION IN OBESE PATIENTS” (priority 2006, published 2010).

Marks after values point to notes of the source that are not given here.

The test relates to obese patients with hypertension. Nature of the test: Randomized, double-blind, multicenter clinical study: add-on treatment in grade 3 obese hypertensive patients who did not respond to HCTZ 25 mg. The format is in vivo, human. The conditions noted are these: for BP control rate (in words): grade 3 obesity patients, comparison between treatment groups. The text has this:
The effect of Aliskiren to treat hypertension in patients with obesity was investigated in a clinical study. […] [table]

Setting [1] is: Grade 3 obesity (BMI ≧ 40 kg/m^2), least squares mean ± SEM change from baseline at wk 12 endpoint (ANCOVA; intent-to-treat), add-on to HCTZ 25 mg, dose doubled after 4 weeks.

For `NS(=O)(=O)c1cc2c(cc1Cl)NCNS2(=O)=O` [PBO/HCTZ, hydrochlorothiazide], the “BP control rate (in words)” value was “lower control rates”. Under setting [1], the “Change in DBP, mmHg” value is −5.9 ± 2.2 mmHg and the “Change in SBP, mmHg” value is given as −7.1 ± 3.2 mmHg. The BP control rate (Grade 3 obesity (BMI ≧ 40 kg/m^2), patients reaching <140/90 mmHg, wk 12 endpoint, logistic regression model) stood at 16.7%**.

On to `COCCCOc1cc(C[C@@H](C[C@H](N)[C@@H](O)C[C@H](C(=O)NCC(C)(C)C(N)=O)C(C)C)C(C)C)ccc1OC` [aliskiren, 2(S),4(S),5(S),7(S)—N-(3-amino-2,2-dimethyl-3-oxopropyl)-2,7-di(1-methylethyl)-4-hydroxy-5-amino-8-[4-methoxy-3-(3-methoxy-propoxy)phenyl]-octanamide], for which the “BP control rate (in words)” value is “highly effective BP control”.
